Data published in US7727988B2, “Azabicyclo[3.1.0]hex-3-yl}alkyl)pyrimidinedione” (Glaxo Group Limited, priority 2006, dated 2010).
Counter-ions that a name gives are not always drawn.

molecular target: T1, dopamine D2 receptor (Homo sapiens, UniProt P14416); test: GTPS scintillation proximity assay (GTPS-SPA), CHO_D2 membranes; assay type: biochemical; settings: up to the highest concentration tested in the assay (3 μM)
T1 construct: expressed in transfected cells; host or cells: Chinese Hamster Ovary (CHO) cells, membranes
T1 sequence (P14416 whole entry): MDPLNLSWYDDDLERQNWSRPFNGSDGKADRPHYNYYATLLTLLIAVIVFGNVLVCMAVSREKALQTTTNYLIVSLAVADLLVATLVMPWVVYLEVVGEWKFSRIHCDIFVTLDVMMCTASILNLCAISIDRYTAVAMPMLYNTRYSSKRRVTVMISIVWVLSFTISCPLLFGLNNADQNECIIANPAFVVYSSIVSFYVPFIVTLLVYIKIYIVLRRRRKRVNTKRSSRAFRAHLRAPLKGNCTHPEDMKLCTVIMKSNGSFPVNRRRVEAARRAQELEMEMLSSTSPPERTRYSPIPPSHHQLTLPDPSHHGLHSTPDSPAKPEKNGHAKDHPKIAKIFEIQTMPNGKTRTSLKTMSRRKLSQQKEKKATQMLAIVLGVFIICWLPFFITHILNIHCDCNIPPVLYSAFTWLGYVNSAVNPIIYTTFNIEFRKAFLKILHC
Experimental: Functional potency of compounds of this invention can be measured by the following GTPS scintillation proximity assay (GTPS-SPA). Cells used in the study are Chinese Hamster Ovary (CHO) Cells. • Cell Line • CHO_D2 • CHO_D3 • Dopamine CHO D3 (Biocat no 1060) transduced with bacmam G0 G-protein (Biocat no 97886)
All steps are performed at 4° C. Cell membranes are prepared as follows. Cell pellets are resuspended in 10 volumes of 50 mM HEPES, 1 mM EDTA pH 7.4, using KOH. Cells are homogenised within a glass waring blender for 2 bursts of 15 secs in 200 mls of buffer (50 mM HEPES, 1 mM leupeptin, 25 μg/ml bacitracin, 1 mM EDTA, 1 mM PMSF, 2 μM Pepstatin A). (the latter 2 reagents added as fresh ×100 and ×500 stocks respectively in ethanol). The blender is plunged into ice for 5 mins after the first burst and 10-40 mins after the final burst to allow foam to dissipate. The material is then spun at 500 g for 20 mins and the supernatant spun for 36 mins at 48.000 g. The pellet is resuspended in the same buffer as above but without PMSF and Pepstatin A. The material is then forced through a 0.6 mm needle, made up to the required volume, (usually ×4 the volume of the original cell pellet), aliquoted and stored frozen at −80° C.
The final top concentration of test drug is 3 μM in the assay and 11 points serial dilution curves 1:4 in 100% DMSO are carried out using a Biomek FX. The test drug at 1% (0.5 ul) total assay volume (TAV) is added to a solid, white Greiner polypropylene 384-well assay plate. 50% TAV (25 μl) of precoupled (for 60 mins at RT) membranes, 5 μg/well, and Wheatgerm Agglutinin Polystyrene Scintillation Proximity Assay beads (RPNQ0260, Amersham), 0.25 mg/well, in 20 mM HEPES (pH 7.4, 100 mM NaCl, 10 mM MgCl2), 60 μg/mL saponin and 30 uM GDP is added. The third addition is a 20% TAV (10 ul) addition of either buffer, (agonist format) or EC80 final assay concentration of agonist, Quinelorane, prepared in assay buffer (antagonist format). The assay is started by the addition of 29% TAV (15 ul) of GTP[35S] 0.38 nM final (37 MBq/mL, 1160 Ci/mmol, Amersham). After all additions assay plates are spun down for 1 min at 1,000 rpm. The final assay cocktail ([…]) is incubated at room temperature to equilibrate for 3-6 hours before reading on a ViewLux™ (613/55 filter) luminescence imager 5 min/plate.
The effect of the test drug over the basal generates fpKi values of test drug are calculated from the IC50 generated by “antagonist format” experiment, using Cheng & Prusoff equation: fKi=IC50/1+([A]/EC50) where: [A] is the concentration of the agonist Quinelorane in the assay and EC50 is the Quinelorane EC50 value obtained in the same experiment. fpKi is defined as −logfKi. • pKi results are only estimated to be accurate to about 0.3-0.5.

Compound | activity in the D2 GTPS-SPA assay
Cc1nc(C)c(-c2cn(CCCN3C[C@@H]4C[C@]4(c4ccc(C(F)(F)F)cc4)C3)c(=O)[nH]c2=O)o1.Cl [Example E41, 5-(2,4-dimethyl-1,3-oxazol-5-yl)-1-(3-{(1S,5R)-1-[4-(trifluoromethyl)phenyl]-3-azabicyclo[3.1.0]hex-3-yl}propyl)-2,4(1H,3H)-pyrimidinedione hydrochloride] | no activity
Cc1ccc(-c2cn(CCCN3C[C@@H]4C[C@]4(c4ccc(C(F)(F)F)cc4)C3)c(=O)[nH]c2=O)c(F)n1.Cl.Cl [Example E35, 5-(2-fluoro-6-methyl-3-pyridinyl)-1-(3-{(1S,5R)-1-[4-(trifluoromethyl)phenyl]-3-azabicyclo[3.1.0]hex-3-yl}propyl)-2,4(1H,3H)-pyrimidinedione dihydrochloride] | no activity
O=c1[nH]c(=O)n(CCCN2C[C@@H]3C[C@]3(c3ccc(C(F)(F)F)cc3)C2)cc1-c1ccc(Cl)nc1 [Example E59, 5-(6-chloro-3-pyridinyl)-1-(3-{(1S,5R)-1-[4-(trifluoromethyl)phenyl]-3-azabicyclo[3.1.0]hex-3-yl}propyl)-2,4(1H,3H)-pyrimidinedione dihydrochloride] | no activity
Cc1nc(C)c(-c2cn(CCCCN3C[C@@H]4C[C@]4(c4ccc(C(F)(F)F)cc4)C3)c(=O)[nH]c2=O)o1.Cl [Example E42, 5-(2,4-dimethyl-1,3-oxazol-5-yl)-1-(4-{(1S,5R)-1-[4-(trifluoromethyl)phenyl]-3-azabicyclo[3.1.0]hex-3-yl}butyl)-2,4(1H,3H)-pyrimidinedione hydrochloride] | no activity
Cl.N#Cc1cn(CCCN2C[C@@H]3C[C@]3(c3ccc(C(F)(F)F)cc3)C2)c(=O)[nH]c1=O [Example E17, 2,4-dioxo-1-(3-{(1S,5R)-1-[4-(trifluoromethyl)phenyl]-3-azabicyclo[3.1.0]hex-3-yl}propyl)-1,2,3,4-tetrahydro-5-pyrimidinecarbonitrile hydrochloride] | no activity
Cl.Cl.N#Cc1cccc(-c2cn(CCCN3C[C@@H]4C[C@]4(c4ccc(C(F)(F)F)cc4)C3)c(=O)[nH]c2=O)n1 [Example E47, 6-[2,4-dioxo-1-(3-{(1S,5R)-1-[4-(trifluoromethyl)phenyl]-3-azabicyclo[3.1.0]hex-3-yl}propyl)-1,2,3,4-tetrahydro-5-pyrimidinyl]-2-pyridinecarbonitrile dihydrochloride] | no activity
Cc1cc(F)ccc1-c1cn(CCCN2C[C@@H]3C[C@]3(c3ccc(C(F)(F)F)cc3)C2)c(=O)[nH]c1=O [Example E51, 5-(4-fluoro-2-methylphenyl)-1-(3-{(1S,5R)-1-[4-(trifluoromethyl)phenyl]-3-azabicyclo[3.1.0]hex-3-yl}propyl)-2,4(1H,3H)-pyrimidinedione] | no activity
Cl.Cl.O=c1[nH]c(=O)n(CCCN2C[C@@H]3C[C@]3(c3ccc(C(F)(F)F)cc3)C2)cc1-c1cc(F)cnc1Cl [Example E45, 5-(2-chloro-5-fluoro-3-pyridinyl)-1-(3-{(1S,5R)-1-[4-(trifluoromethyl)phenyl]-3-azabicyclo[3.1.0]hex-3-yl}propyl)-2,4(1H,3H)-pyrimidinedione dihydrochloride] | no activity
Cc1cc(Cl)ccc1-c1cn(CCCN2C[C@@H]3C[C@]3(c3ccc(C(F)(F)F)cc3)C2)c(=O)[nH]c1=O [Example E53, 5-(4-chloro-2-methylphenyl)-1-(3-{(1S,5R)-1-[4-(trifluoromethyl)phenyl]-3-azabicyclo[3.1.0]hex-3-yl}propyl)-2,4(1H,3H)-pyrimidinedione] | no activity
Cl.N#Cc1cn(CCCCN2C[C@@H]3C[C@]3(c3ccc(C(F)(F)F)cc3)C2)c(=O)[nH]c1=O [Example E18, 2,4-dioxo-1-(4-{(1S,5R)-1-[4-(trifluoromethyl)phenyl]-3-azabicyclo[3.1.0]hex-3-yl}butyl)-1,2,3,4-tetrahydro-5-pyrimidinecarbonitrile hydrochloride] | no activity
Cl.O=c1[nH]c(=O)n(CCCN2C[C@@H]3C[C@]3(c3ccc(C(F)(F)F)cc3)C2)cc1C(F)(F)F [Example E13, 5-(trifluoromethyl)-1-(3-{(1S,5R)-1-[4-(trifluoromethyl)phenyl]-3-azabicyclo[3.1.0]hex-3-yl}propyl)-2,4(1H,3H)-pyrimidinedione hydrochloride] | no activity
Cc1ccccc1-c1cn(CCCN2C[C@@H]3C[C@]3(c3ccc(C(F)(F)F)cc3)C2)c(=O)[nH]c1=O.Cl [Example E31, 5-(2-methylphenyl)-1-(3-{(1S,5R)-1-[4-(trifluoromethyl)phenyl]-3-azabicyclo[3.1.0]hex-3-yl}propyl)-2,4(1H,3H)-pyrimidinedione hydrochloride] | no activity
Cl.Cl.O=c1[nH]c(=O)n(CCCN2C[C@@H]3C[C@]3(c3ccc(C(F)(F)F)cc3)C2)cc1-c1cccnc1F [Example E25, 5-(2-fluoro-3-pyridinyl)-1-(3-{(1S,5R)-1-[4-(trifluoromethyl)phenyl]-3-azabicyclo[3.1.0]hex-3-yl}propyl)-2,4(1H,3H)-pyrimidinedione dihydrochloride] | no activity
Cc1ccncc1-c1cn(CCCN2C[C@@H]3C[C@]3(c3ccc(C(F)(F)F)cc3)C2)c(=O)[nH]c1=O.Cl.Cl [Example E64, 5-(4-methyl-3-pyridinyl)-1-(3-{(1S,5R)-1-[4-(trifluoromethyl)phenyl]-3-azabicyclo[3.1.0]hex-3-yl}propyl)-2,4(1H,3H)-pyrimidinedione dihydrochloride] | no activity
O=c1[nH]c(=O)n(CCCN2CC3CC3(c3ccc(Cl)cc3)C2)cc1-c1cccnc1F [Example E50, 1-{3-[(1S,5R/1R,5S)-1-(4-chlorophenyl)-3-azabicyclo[3.1.0]hex-3-yl]propyl}-5-(2-fluoro-3-pyridinyl)-2,4(1H,3H)-pyrimidinedione] | no activity
Cl.O=c1[nH]c(=S)ccn1CCCCN1C[C@@H]2C[C@]2(c2ccc(C(F)(F)F)cc2)C1 [Example E33, 4-thioxo-1-(4-{(1S,5R)-1-[4-(trifluoromethyl)phenyl]-3-azabicyclo[3.1.0]hex-3-yl}butyl)-3,4-dihydro-2(1H)-pyrimidinone hydrochloride] | no activity
Cc1cnc(F)c(-c2cn(CCCN3C[C@@H]4C[C@]4(c4ccc(C(F)(F)F)cc4)C3)c(=O)[nH]c2=O)c1.Cl.Cl [Example E61, 5-(2-fluoro-5-methyl-3-pyridinyl)-1-(3-{(1S,5R)-1-[4-(trifluoromethyl)phenyl]-3-azabicyclo[3.1.0]hex-3-yl}propyl)-2,4(1H,3H)-pyrimidinedione dihydrochloride] | no activity
O=c1[nH]c(=O)n(CCCN2CC3C[C@]3(c3ccc(C(F)(F)F)cc3)C2)cc1-c1cccc(C(F)(F)F)n1 (some centres unmarked) [Example E38, dihydrochloride] | no activity
Cl.O=c1[nH]c(=O)n(CCCN2C[C@@H]3C[C@]3(c3ccc(C(F)(F)F)cc3F)C2)cc1-c1cccs1 [Example E12, 1-(3-{(1S,5R)-1-[2-fluoro-4-(trifluoromethyl)phenyl]-3-azabicyclo[3.1.0]hex-3-yl}propyl)-5-(2-thienyl)-2,4(1H,3H)-pyrimidinedione hydrochloride] | no activity
Cl.O=c1[nH]c(=O)n(CCCN2C[C@@H]3C[C@]3(c3ccc(C(F)(F)F)cc3)C2)cc1-c1cccnn1 [Example E26, 5-(3-pyridazinyl)-1-(3-{(1S,5R)-1-[4-(trifluoromethyl)phenyl]-3-azabicyclo[3.1.0]hex-3-yl}propyl)-2,4(1H,3H)-pyrimidinedione hydrochloride] | no activity
